{"source": "paper PMC12535076", "about": "“Neurotherapeutic effects of Vutiglabridin as a Paraoxonase-2 modulator in preclinical models of Parkinson’s disease” (Molecular Neurodegeneration, 2025)", "key": {"[1]": {"test_system": "MPTP-injected C57BL/6 mice", "test": "MPTP-injected sub-acute PD mouse model (pole test, rotarod, TH immunohistochemistry)", "assay_type": "in vivo", "protocol": "Animals were allowed at least 1 week of acclimatization before being subjected to the study and were housed in a regulated environment with a 12-h/12-h light/dark cycle. Food and water were provided ad libitum. The animal experiment was carried out in accordance with the National Institutes of Health Guide for the Care and Use of Laboratory Animals (NIH Publications No. 80–23; revised 1996). All procedures for handling mice were carried out in accordance with “Principles of Laboratory Animal Care” and the Animal Care and Use guidelines of Kyung Hee University, Seoul, Korea (KHSASP-20-163).\nMPTP was dissolved in distilled water and injected intraperitoneally for five days from day 10 of the 21-day experiment period. Vuti or rasagiline was administered via oral gavage for 21 days. Vehicles for both Vuti and MPTP (distilled water) were administered to all mice. Mice were randomly divided for all studies. For the first set of studies shown in Fig. 3, each group consisted of 5 animals.\nTo determine forelimb and hindlimb motor coordination and balance, we performed the rotarod test as described previously. Also, the pole test was performed to measure bradykinesia. For the rotarod test, the animals were pre-trained on the rotating bar of a rotarod unit set (LE 8500, Letica, Spain) on days 18 and 19 before the test on day 20. During pre-training, three trials per day were performed (5 rpm rotation speed on the first day, 15 rpm rotation speed on the second day). Mice were kept on the rotating bar (7.3-cm diameter) for 5 min on each trial. On day 20, the time spent on the rotating bar at 20 rpm, which was defined as the latent period, was recorded. Performance was recorded as 300 s if the latent period exceeded 300 s. Mice had at least 5 min of rest between trials to reduce stress and fatigue. Each animal underwent three test trials, and the mean of the test results was subjected to statistical analysis. For the pole test, mice were held on the top of the pole (diameter 8 mm, height 55 cm, with a rough surface). The time to land down and place four fee on the floor was recorded as the time for locomotion activity (T-LA).\nOn day 21, mice were anesthetized with sodium pentobarbital (50 mg/kg intraperitoneally) and transcardially perfused with saline containing 0.5% sodium nitrate and heparin (10 U/mL) and then fixed with 4% PFA in 0.1 M phosphate-buffer (PB, pH 7.2). Dissected brains were post-fixed overnight in buffered 4% PFA at 4 °C and stored in a 30% sucrose solution until they sank. Brains were cryosectioned into 30 μm thick coronal sections in a Cryostat (Microsystems AG, Leica, Wetzlar, Germany) and stored until use at 4℃ in a cryoprotectant (25% ethylene glycol, 25% glycerol, 0.2 M PB, and water). All sections were collected in six separate series and processed for immunostaining.\nFree-floating brain sections were processed with the avidin-biotin peroxidase complex (ABC) complex (Vector Laboratories, Burlingame, CA, USA) method. Briefly, brain sections were incubated with primary rabbit anti-TH antibodies (1:1000; Pel-Freez Biologicals, Rogers, AR, USA) overnight at 4 °C, with biotinylated anti-rabbit IgG (1:400) for 1 h at room temperature, and then with the ABC solution (1:1:200) for 1 h at room temperature. The immunoperoxidase signals of TH was detected by incubating sections with 0.5 mg/ml 3,3′-diaminobenzidine (Sigma, St. Louis, MO, USA) in 0.1 M PB containing 0.003% H2O2. Stained brain sections were mounted on gelatin-coated slides and imaged under a bright-field microscope (Olympus Optical, Tokyo, Japan). TH-positivity in the ST was measured by the optical density of TH-positive fibers at x40 magnification using ImageJ software (National Institutes of Health, Bethesda, MD, USA). TH-positive cells in the SNpc in brain tissue Sect. (5 sections/series) were counted at x100 magnification as previously described. […]"}, "MAO-B [2]": {"target": "T1, MAO-B (Homo sapiens, UniProt P27338)", "T1 sequence (P27338 1-520)": "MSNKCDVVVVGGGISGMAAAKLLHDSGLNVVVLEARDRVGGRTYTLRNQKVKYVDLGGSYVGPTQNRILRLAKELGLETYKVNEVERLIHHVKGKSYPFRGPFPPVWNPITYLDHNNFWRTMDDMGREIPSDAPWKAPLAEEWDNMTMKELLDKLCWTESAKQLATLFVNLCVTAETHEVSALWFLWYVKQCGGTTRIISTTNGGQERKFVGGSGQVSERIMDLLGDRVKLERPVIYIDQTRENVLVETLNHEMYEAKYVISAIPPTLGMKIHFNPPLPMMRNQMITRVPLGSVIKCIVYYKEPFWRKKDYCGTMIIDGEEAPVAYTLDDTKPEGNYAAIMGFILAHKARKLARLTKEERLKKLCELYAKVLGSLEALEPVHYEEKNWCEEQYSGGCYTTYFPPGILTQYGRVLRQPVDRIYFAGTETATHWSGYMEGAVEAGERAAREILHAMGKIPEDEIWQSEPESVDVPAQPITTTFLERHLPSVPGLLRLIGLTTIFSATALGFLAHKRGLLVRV", "test": "HRP/Amplex red based MAO-B enzyme activity assay", "assay_type": "biochemical", "details": "read-out: IC50, MAO-B assay, HRP/AR method", "protocol": "(§1) MAO-A or MAO-B enzyme solutions were prepared by diluting 10 µL of a 2.5 mg/mL MAO-A or MAO-B stock into 10 mL of 50 mM sodium phosphate buffer (pH 7.4). A substrate assay mixture was then prepared by combining benzylamine (for MAO-B) or tyramine (for MAO-A) from a 100 mM stock (200 µL in 10 mL phosphate buffer, final concentration 1 mM) with 100 µL of a 20 mM AR reagent stock (final concentration 0.1 mM) and 100 µL of a 200 U/mL HRP stock (final concentration 1 U/mL) in 10 mL phosphate buffer. […] Next, 50 µL of the substrate assay mixture was added, and the reaction was carried out at 37 °C for 60 min. The production of resorufin was quantified by fluorescence measurement (excitation at 540 nm and emission at 580 nm)."}, "MAO-B [3]": {"target": "T1, MAO-B", "test": "ROS Glo based MAO-B enzyme activity assay", "assay_type": "biochemical", "details": "read-out: IC50, MAO-B assay, ROS-Glo method", "protocol": "An enzyme solution was prepared by diluting 10 µL of a 2.5 mg/mL MAO-A or MAO-B stock in 10 mL of 50 mM sodium phosphate buffer (pH 7.4). A substrate solution was prepared by diluting 200 µL of a 100 mM benzylamine (or tyramine) stock in 10 mL phosphate buffer to achieve a final concentration of 1 mM. For each 96-well plate experiment, 12.5 µL of a 1× H2O2 probe solution was added to 1 mL of the probe dilution buffer from the ROS Glo™ kit. Separately, 40 µL of cysteine and enhancer were diluted into 4 mL of Luciferin solution. In each well, 49 µL of the enzyme solution was dispensed, followed by 1 µL of the test compound, and incubated for 30 min. […] Next, 10 µL of the H2O2 probe solution was added and incubated for 15 min. […] Luminescence was subsequently recorded using a microplate luminescence reader (SpectraMax i3, Molecular Devices)."}, "MAO-A [4]": {"target": "T2, MAO-A (Homo sapiens, UniProt P21397)", "T2 sequence (P21397 1-527)": "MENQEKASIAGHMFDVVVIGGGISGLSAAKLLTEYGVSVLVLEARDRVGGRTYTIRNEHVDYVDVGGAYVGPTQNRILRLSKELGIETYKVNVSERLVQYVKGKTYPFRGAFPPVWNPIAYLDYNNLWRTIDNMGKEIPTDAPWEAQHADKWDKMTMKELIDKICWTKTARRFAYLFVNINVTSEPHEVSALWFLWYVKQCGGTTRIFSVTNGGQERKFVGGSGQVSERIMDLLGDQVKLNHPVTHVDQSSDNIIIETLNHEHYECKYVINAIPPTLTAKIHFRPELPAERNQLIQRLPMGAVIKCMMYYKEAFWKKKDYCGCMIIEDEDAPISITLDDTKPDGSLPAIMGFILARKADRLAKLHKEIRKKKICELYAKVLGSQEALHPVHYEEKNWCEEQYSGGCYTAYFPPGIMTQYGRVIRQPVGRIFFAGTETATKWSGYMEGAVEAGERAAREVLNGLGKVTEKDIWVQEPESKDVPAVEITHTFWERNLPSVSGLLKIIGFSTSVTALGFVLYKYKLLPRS", "test": "HRP/Amplex red based MAO-A enzyme activity assay", "assay_type": "biochemical", "details": "read-out: IC50, MAO-A assay, HRP/AR method", "protocol": "as §1"}, "MAO-A [5]": {"target": "T2, MAO-A", "test": "ROS Glo based MAO-A enzyme activity assay", "assay_type": "biochemical", "details": "printed as 'separate MAO-B assay' within the MAO-A panel (b); read-out: IC50, ROS-Glo method, panel (b)", "protocol": "An enzyme solution was prepared by diluting 10 µL of a 2.5 mg/mL MAO-A or MAO-B stock in 10 mL of 50 mM sodium phosphate buffer (pH 7.4). A substrate solution was prepared by diluting 200 µL of a 100 mM benzylamine (or tyramine) stock in 10 mL phosphate buffer to achieve a final concentration of 1 mM. For each 96-well plate experiment, 12.5 µL of a 1× H2O2 probe solution was added to 1 mL of the probe dilution buffer from the ROS Glo™ kit. Separately, 40 µL of cysteine and enhancer were diluted into 4 mL of Luciferin solution. In each well, 49 µL of the enzyme solution was dispensed, followed by 1 µL of the test compound, and incubated for 30 min. Then, 49 µL of the substrate solution was added, and the reaction proceeded at 37 °C for 60 min. Next, 10 µL of the H2O2 probe solution was added and incubated for 15 min. Subsequently, 40 µL of a luciferin solution containing cysteine and an enhancer was added, followed by an additional 30-minute incubation at 37 °C. Luminescence was subsequently recorded using a microplate luminescence reader (SpectraMax i3, Molecular Devices)."}, "[6]": {"details": "MPTP mice, Vuti 1, 50, 100 mg/kg/day or rasagiline 0.1 mg/kg/day orally for 21 days"}}, "data": [{"smiles": "CN1CC=C(c2ccccc2)CC1", "note": "[MPTP, 1-methyl-4-phenyl-1,2,3,6-tetrahydropyridine, reference compound]", "values": [{"measurement": "latency time to reach the floor (T-LA) in the pole test", "setting": "[1]; MPTP 30 mg/kg/day i.p. for 5 days, no drug, vs 5.2 ± 0.9 s vehicle-only", "value": "9.6 ± 2.1", "unit": "s"}, {"measurement": "latency to fall in the rotarod test", "setting": "[1]; MPTP 30 mg/kg/day i.p. for 5 days, no drug, vs 196.4 ± 77.3 s vehicle-only", "value": "63.5 ± 34.5", "unit": "s"}]}, {"smiles": "CC1(C)C=Cc2c(ccc3c2OC[C@@H](c2ccc(O)cc2O)C3)O1", "note": "[Glabridin]", "values": [{"measurement": "IC50", "setting": "MAO-B [2]", "value": 7.29, "unit": "µM"}, {"measurement": "IC50", "setting": "MAO-B [3]", "value": 15.4, "unit": "µM"}, {"measurement": "IC50", "setting": "MAO-A [4]", "value": 26.8, "unit": "µM"}, {"measurement": "IC50", "setting": "MAO-A [5]", "value": 12, "unit": "µM"}]}, {"smiles": "C#CCN[C@@H]1CCc2ccccc21", "note": "[rasagiline, Rasagiline, reference compound]", "values": [{"measurement": "effect on T-LA in the pole test", "setting": "[1]; [6]", "value": "significantly normalized"}, {"measurement": "effect on latency to fall in the rotarod test", "setting": "[1]; [6]", "value": "significantly normalized"}]}]}
